Results: the NIST ThermoML archive (doi:10.1021/je5007532)

Experiment: xn = mol fraction of the nth substance listed
Details: for viscosity: 100 kPa, Falling or rolling sphere viscometry; for viscosity / speed of sound / mass density: Liquid; for speed of sound / mass density: 101 kPa; for speed of sound: Sing-around technique in a fixed-path interferometer; for mass density: Vibrating tube method; for surface tension liquid-gas: 294.4 K, Pendant drop shape

CC(C)CC(C)(C)C [2,2,4-trimethylpentane] + CCCCCCC
Details | mass density [kg/m3] | speed of sound [m/s] | viscosity [mPa·s]
293.15 K, x1 = 0.1 | 684.83 | 1146.5 | 0.416
293.15 K, x1 = 0.2001 | 685.71 | 1141.7 | 0.423
293.15 K, x1 = 0.2999 | 686.59 | 1136.6 | 0.43
293.15 K, x1 = 0.4001 | 687.45 | 1131.6 | 0.438
293.15 K, x1 = 0.5001 | 688.28 | 1127 | 0.447
293.15 K, x1 = 0.6 | 689.06 | 1122 | 0.456
293.15 K, x1 = 0.6999 | 689.77 | 1117.2 | 0.466
293.15 K, x1 = 0.8 | 690.5 | 1112.5 | 0.477
293.15 K, x1 = 0.9 | 691.17 | 1107.7 | 0.488
293.15 K, x1 = 1 | 691.84 | 1103.2 | 0.501
298.15 K, x1 = 0.1 | 680.61 | 1125.3 | 0.394
298.15 K, x1 = 0.2001 | 681.5 | 1120.5 | 0.4
298.15 K, x1 = 0.2999 | 682.4 | 1115.5 | 0.407
298.15 K, x1 = 0.4001 | 683.27 | 1110.5 | 0.415
298.15 K, x1 = 0.5001 | 684.12 | 1105.9 | 0.423
298.15 K, x1 = 0.6 | 684.91 | 1101 | 0.432
298.15 K, x1 = 0.6999 | 685.63 | 1096.2 | 0.441
298.15 K, x1 = 0.8 | 686.36 | 1091.6 | 0.451
298.15 K, x1 = 0.9 | 687.05 | 1086.7 | 0.462
298.15 K, x1 = 1 | 687.7 | 1082 | 0.473
303.15 K, x1 = 0.1 | 676.36 | 1103.9 | 0.373
303.15 K, x1 = 0.2001 | 677.27 | 1099.2 | 0.379
303.15 K, x1 = 0.2999 | 678.18 | 1094.2 | 0.386
303.15 K, x1 = 0.4001 | 679.07 | 1089.3 | 0.393
303.15 K, x1 = 0.5001 | 679.93 | 1084.7 | 0.4
303.15 K, x1 = 0.6 | 680.73 | 1079.9 | 0.408
303.15 K, x1 = 0.6999 | 681.46 | 1075.1 | 0.417
303.15 K, x1 = 0.8 | 682.2 | 1070.5 | 0.426
303.15 K, x1 = 0.9 | 682.89 | 1065.8 | 0.436
303.15 K, x1 = 1 | 683.59 | 1061.4 | 0.447
308.15 K, x1 = 0.1 | 672.09 | 1082.7 | 0.355
308.15 K, x1 = 0.2001 | 673.01 | 1078 | 0.36
308.15 K, x1 = 0.2999 | 673.93 | 1073.1 | 0.366
308.15 K, x1 = 0.4001 | 674.83 | 1068.2 | 0.373
308.15 K, x1 = 0.5001 | 675.71 | 1063.7 | 0.38
308.15 K, x1 = 0.6 | 676.52 | 1058.9 | 0.387
308.15 K, x1 = 0.6999 | 677.26 | 1054.2 | 0.396
308.15 K, x1 = 0.8 | 678.02 | 1049.7 | 0.404
308.15 K, x1 = 0.9 | 678.72 | 1045 | 0.413
308.15 K, x1 = 1 | 679.4 | 1040.4 | 0.423
313.15 K, x1 = 0.1 | 667.78 | 1061.7 | –
313.15 K, x1 = 0.2001 | 668.71 | 1057 | –
313.15 K, x1 = 0.2999 | 669.65 | 1052.2 | –
313.15 K, x1 = 0.4001 | 670.57 | 1047.3 | –
313.15 K, x1 = 0.5001 | 671.46 | 1042.8 | –
313.15 K, x1 = 0.6 | 672.28 | 1038.1 | –
313.15 K, x1 = 0.6999 | 673.03 | 1033.5 | –
313.15 K, x1 = 0.8 | 673.8 | 1029 | –
313.15 K, x1 = 0.9 | 674.52 | 1024.3 | –
313.15 K, x1 = 1 | 675.23 | 1020 | –
318.15 K, x1 = 0.1 | 663.44 | 1040.7 | 0.32
318.15 K, x1 = 0.2001 | 664.39 | 1036.1 | 0.325
318.15 K, x1 = 0.2999 | 665.34 | 1031.3 | 0.33
318.15 K, x1 = 0.4001 | 666.28 | 1026.5 | 0.336
318.15 K, x1 = 0.5001 | 667.18 | 1022.1 | 0.343
318.15 K, x1 = 0.6 | 668.02 | 1017.4 | 0.349
318.15 K, x1 = 0.6999 | 668.78 | 1012.8 | 0.356
318.15 K, x1 = 0.8 | 669.55 | 1008.4 | 0.363
318.15 K, x1 = 0.9 | 670.28 | 1003.8 | 0.372
318.15 K, x1 = 1 | 670.98 | 999.3 | 0.38
323.15 K, x1 = 0.1 | 659.07 | 1019.8 | 0.305
323.15 K, x1 = 0.2001 | 660.04 | 1015.2 | 0.309
323.15 K, x1 = 0.2999 | 661 | 1010.5 | 0.314
323.15 K, x1 = 0.4001 | 661.95 | 1005.7 | 0.32
323.15 K, x1 = 0.5001 | 662.86 | 1001.4 | 0.326
323.15 K, x1 = 0.6 | 663.71 | 996.8 | 0.332
323.15 K, x1 = 0.6999 | 664.49 | 992.3 | 0.338
323.15 K, x1 = 0.8 | 665.28 | 987.9 | 0.345
323.15 K, x1 = 0.9 | 666.02 | 983.3 | 0.353
323.15 K, x1 = 1 | 666.75 | 979.2 | 0.361
328.15 K, x1 = 0.1 | 654.65 | 999 | 0.291
328.15 K, x1 = 0.2001 | 655.64 | 994.4 | 0.295
328.15 K, x1 = 0.2999 | 656.61 | 989.8 | 0.3
328.15 K, x1 = 0.4001 | 657.59 | 985.1 | 0.305
328.15 K, x1 = 0.5001 | 658.52 | 980.8 | 0.311
328.15 K, x1 = 0.6 | 659.37 | 976.3 | 0.316
328.15 K, x1 = 0.6999 | 660.16 | 971.8 | 0.323
328.15 K, x1 = 0.8 | 660.98 | 967.4 | 0.329
328.15 K, x1 = 0.9 | 661.73 | 963 | 0.335
328.15 K, x1 = 1 | 662.44 | 958.7 | 0.343
333.15 K, x1 = 0.1 | 650.21 | 978.3 | 0.276
333.15 K, x1 = 0.2001 | 651.22 | 973.9 | 0.28
333.15 K, x1 = 0.2999 | 652.2 | 969.2 | 0.286
333.15 K, x1 = 0.4001 | 653.19 | 964.6 | 0.29
333.15 K, x1 = 0.5001 | 654.14 | 960.4 | 0.294
333.15 K, x1 = 0.6 | 655.01 | 955.8 | 0.3
333.15 K, x1 = 0.6999 | 655.81 | 951.6 | 0.306
333.15 K, x1 = 0.8 | 656.64 | 947.3 | 0.313
333.15 K, x1 = 0.9 | 657.4 | 942.9 | 0.319
333.15 K, x1 = 1 | 658.16 | 938.6 | 0.326
338.15 K, x1 = 0.1 | 645.76 | 957.8 | –
338.15 K, x1 = 0.2001 | 646.75 | 953.3 | –
338.15 K, x1 = 0.2999 | 647.77 | 948.7 | –
338.15 K, x1 = 0.4001 | 648.75 | 944.3 | –
338.15 K, x1 = 0.5001 | 649.71 | 940.1 | –
338.15 K, x1 = 0.6 | 650.6 | 935.8 | –
338.15 K, x1 = 0.6999 | 651.41 | 931.3 | –
338.15 K, x1 = 0.8 | 652.29 | 927.2 | –
338.15 K, x1 = 0.9 | 653.03 | 922.9 | –
338.15 K, x1 = 1 | 653.8 | 918.7 | –
343.15 K, x1 = 1 | 649.4 | 899 | –

Details | surface tension liquid-gas [mN/m]
x1 = 0.1 | 19.9
x1 = 0.2001 | 19.7
x1 = 0.2999 | 19.5
x1 = 0.4001 | 19.4
x1 = 0.5001 | 19.2
x1 = 0.6999 | 19
x1 = 0.8 | 18.9
x1 = 1 | 18.7
